Drawing on ChEMBL document CHEMBL1821667, “New pyrazolyl and thienyl aminohydantoins as potent BACE1 inhibitors: exploring the S2' region” (Bioorg Med Chem Lett, 2011), this text covers IC50, EC50 and Kp for 15 compounds.

One series addresses Cathepsin D (Homo sapiens, UniProt P07339). Kind of series: Inhibition of cathepsin D by FRET assay.
For series [1], the target named is T1, Beta-secretase 1 (Homo sapiens, UniProt P56817). In words: Inhibition of BACE1 expressed in CHO cells expressing wild type human APP assessed as inhibition of amyloid beta-40 or 42 production by ELISA assay. The format is cell-based. (ELISA stands for enzyme-linked immunosorbent assay.)
T1 sequence (P56817 whole entry): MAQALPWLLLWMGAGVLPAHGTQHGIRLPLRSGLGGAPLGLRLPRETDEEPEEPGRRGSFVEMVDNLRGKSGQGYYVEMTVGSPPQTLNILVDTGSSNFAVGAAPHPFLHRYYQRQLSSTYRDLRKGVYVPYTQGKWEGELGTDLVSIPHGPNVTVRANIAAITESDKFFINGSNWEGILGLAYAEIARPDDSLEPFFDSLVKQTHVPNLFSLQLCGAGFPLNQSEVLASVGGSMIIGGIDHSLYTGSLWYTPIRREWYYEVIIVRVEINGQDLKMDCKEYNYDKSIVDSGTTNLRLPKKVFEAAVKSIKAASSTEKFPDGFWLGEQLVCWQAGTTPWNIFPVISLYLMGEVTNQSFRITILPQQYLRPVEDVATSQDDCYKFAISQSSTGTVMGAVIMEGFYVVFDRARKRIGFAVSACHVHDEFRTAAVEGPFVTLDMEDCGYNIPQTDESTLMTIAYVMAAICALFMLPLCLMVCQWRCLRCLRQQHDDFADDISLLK
Series [2] is described as follows: Ratio of AUC in brain to plasma. The format is ADME, cell-free. Conditions: brain and plasma; read-out: Ratio AUC.
For the next series, the target named is T2, Beta-secretase 2 (Homo sapiens, UniProt Q9Y5Z0).
T2 sequence (Q9Y5Z0 whole entry): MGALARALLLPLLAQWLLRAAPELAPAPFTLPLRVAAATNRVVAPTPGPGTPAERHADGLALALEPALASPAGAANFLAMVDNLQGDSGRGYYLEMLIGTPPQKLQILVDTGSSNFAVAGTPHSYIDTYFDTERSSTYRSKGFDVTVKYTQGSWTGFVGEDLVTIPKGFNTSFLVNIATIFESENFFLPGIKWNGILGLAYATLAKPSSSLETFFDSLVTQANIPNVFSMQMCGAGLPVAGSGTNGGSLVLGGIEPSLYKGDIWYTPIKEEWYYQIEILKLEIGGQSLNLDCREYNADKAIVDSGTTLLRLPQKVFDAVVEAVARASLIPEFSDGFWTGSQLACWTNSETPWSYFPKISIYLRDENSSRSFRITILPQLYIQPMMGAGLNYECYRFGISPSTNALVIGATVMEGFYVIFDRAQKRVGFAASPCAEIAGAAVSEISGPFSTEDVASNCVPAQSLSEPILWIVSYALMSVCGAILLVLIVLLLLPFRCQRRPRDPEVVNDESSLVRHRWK
In words: Inhibition of BACE2 by FRET assay.

Series [3] deals with T1, Beta-secretase 1. Kind of series: Inhibition of BACE1 by FRET assay.

SMILES strings stand for the structures.

Cathepsin D, sequence (P07339 65-162 limits assumed): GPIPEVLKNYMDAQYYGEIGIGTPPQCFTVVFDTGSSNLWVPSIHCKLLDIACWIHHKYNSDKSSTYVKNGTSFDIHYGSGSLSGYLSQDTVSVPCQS
Cathepsin D, sequence (P07339 169-412 limits assumed): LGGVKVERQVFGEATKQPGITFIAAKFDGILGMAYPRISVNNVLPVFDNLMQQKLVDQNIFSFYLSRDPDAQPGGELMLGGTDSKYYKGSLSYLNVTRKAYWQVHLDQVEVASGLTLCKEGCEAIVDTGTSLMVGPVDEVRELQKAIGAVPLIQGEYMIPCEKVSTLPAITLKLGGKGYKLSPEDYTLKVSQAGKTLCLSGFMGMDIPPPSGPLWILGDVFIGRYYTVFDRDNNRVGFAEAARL

Take `CCC(=O)c1cc([C@]2(c3cccc(-c4cccnc4F)c3)N=C(N)N(C)C2=O)cs1`: the IC50 (commonly the point on the concentration scale where inhibition reaches its midpoint) worked out at 2500 nM against Cathepsin D, 50 nM at Beta-secretase 2 and 10 nM on Beta-secretase 1 [3]. In addition, the concentration giving a half-maximal response (EC50) (as a rule, the concentration that produces a half-maximal response) on Beta-secretase 1 [1] amounted to 10 nM. In addition, the Kp in series [2] was 0.1.

As to `CCc1cc(C2(c3cccc(-c4cncnc4)c3)N=C(N)N(C)C2=O)cs1` (racemic), the IC50 against Cathepsin D came out at 23800 nM; against Beta-secretase 2, 560 nM; against Beta-secretase 1 [3], 80 nM. For the same compound, the EC50 on Beta-secretase 1 [1] stood at 370 nM. Also, the Kp in series [2] is 0.1.

As to `CN1C(=O)C(c2ccsc2)(c2cccc(-c3cccnc3F)c2)N=C1N` (racemic), the results for the half-inhibitory concentration (IC50) against Cathepsin D, against Beta-secretase 2 and against Beta-secretase 1 [3] were 8000 nM, 230 nM and 40 nM, respectively. For the same compound, the EC50 at Beta-secretase 1 [1] was determined as 150 nM. Besides, in series [2], the Kp was 0.1.

Regarding `COc1cncc(-c2cccc(C3(c4ccsc4)N=C(N)N(C)C3=O)c2)c1` (racemic), the IC50 at Cathepsin D was found to be 18600 nM; against Beta-secretase 2 it was 20 nM; at Beta-secretase 1 [3] it was 40 nM. The EC50 at Beta-secretase 1 [1] is 220 nM. Moreover, in series [2], the Kp is 0.1.

Consider `CCc1cc(C2(c3cccc(-c4cncnc4)c3)N=C(N)N(C)C2=O)c(C)s1` (racemic), for which the IC50 came to 11800 nM against Cathepsin D, 490 nM against Beta-secretase 2 and 180 nM against Beta-secretase 1 [3]. For the same compound, the EC50 on Beta-secretase 1 [1] came out at 230 nM. In series [2], the Kp was determined as 0.1.

Regarding `CN1C(=O)C(c2ccsc2)(c2cccc(-c3cncnc3)c2)N=C1N` (racemic), the values for the IC50 at Cathepsin D, against Beta-secretase 2 and against Beta-secretase 1 [3] were 26400 nM, 680 nM and 70 nM, respectively. Besides, the half-maximal effective concentration (EC50) on Beta-secretase 1 [1] was 470 nM. In series [2], the Kp stood at 0.1.

Consider `CN1C(=O)C(c2ccsc2)(c2ccc(F)c(-c3cccnc3)c2)N=C1N` (racemic), for which the IC50 at Cathepsin D stood at 12800 nM; against Beta-secretase 2, 740 nM; on Beta-secretase 1 [3] it was 90 nM. Also, the EC50 at Beta-secretase 1 [1] came out at 370 nM. In series [2], the Kp worked out at 0.1.

For `CN1C(=O)C(c2cccc(-c3cncnc3)c2)(c2csc(Cl)c2)N=C1N` (racemic), the IC50 against Cathepsin D amounted to 29900 nM; at Beta-secretase 2, 620 nM; against Beta-secretase 1 [3] it was 80 nM. Further, the EC50 at Beta-secretase 1 [1] is 340 nM. For the same compound, the Kp in series [2] worked out at 0.1.

Regarding `CN1C(=O)C(c2cccc(-c3cccnc3F)c2)(c2cnn(C3CCCC3)c2)N=C1N` (racemic), the concentration for half-maximal inhibition (IC50) was 1790 nM at Cathepsin D, 120 nM at Beta-secretase 2 and 20 nM against Beta-secretase 1 [3]. The EC50 on Beta-secretase 1 [1] came out at 410 nM.

Turning to `CC(C)CCn1cc(C2(c3cccc(-c4cccnc4F)c3)N=C(N)N(C)C2=O)cn1` (racemic), the values for the 50% inhibitory concentration (IC50) against Cathepsin D, at Beta-secretase 2 and against Beta-secretase 1 [3] were 830 nM, 18 nM and 16 nM, respectively. In addition, the EC50 on Beta-secretase 1 [1] turned out to be 160 nM.

Turning to `CN1C(=O)C(c2cccc(-c3cncnc3)c2)(c2cnn(CCC3CCCCC3)c2)N=C1N` (racemic), the IC50 at Cathepsin D amounted to 4400 nM; against Beta-secretase 2 it was 20 nM; against Beta-secretase 1 [3], 20 nM. Moreover, at Beta-secretase 1 [1], the EC50 is 300 nM.

As to `CC(C)Cn1cc(C2(c3cccc(-c4cccnc4F)c3)N=C(N)N(C)C2=O)cn1` (racemic), the 50% inhibitory concentration (IC50) against Cathepsin D is 1470 nM; at Beta-secretase 2, 50 nM; against Beta-secretase 1 [3], 20 nM. The half-maximal effective concentration (EC50) at Beta-secretase 1 [1] came out at 140 nM.

Take `CN1C(=O)C(c2cccc(-c3cncnc3)c2)(c2cnn(C)c2)N=C1N` (racemic): the 50% inhibitory concentration (IC50) on Cathepsin D turned out to be 54400 nM; at Beta-secretase 2 it was 860 nM; against Beta-secretase 1 [3], 100 nM. Also, the EC50 at Beta-secretase 1 [1] was found to be 4400 nM.

In the case of `CC(C)n1cc(C2(c3ccc(F)c(-c4cncnc4)c3)N=C(N)N(C)C2=O)cn1` (racemic), the half-maximal inhibitory concentration (IC50) was determined as 28300 nM at Cathepsin D, 6650 nM on Beta-secretase 2 and 80 nM against Beta-secretase 1 [3]. Besides, the EC50 on Beta-secretase 1 [1] was found to be 1600 nM.

Turning to `CC(C)CCn1cc(C2(c3cccc(-c4cncnc4)c3)N=C(N)N(C)C2=O)cn1` (racemic), the half-inhibitory concentration (IC50) against Cathepsin D was 7400 nM; at Beta-secretase 2, 20 nM; on Beta-secretase 1 [3], 30 nM. Besides, on Beta-secretase 1 [1], the concentration giving a half-maximal response (EC50) was 500 nM.
